Read-outs that look alike come from different tables or passages of the source.
Assays:
Adenosine A2a receptor = target: T1, Adenosine A2a receptor (Homo sapiens, UniProt P29274); assay: Adenosine receptor TR-FRET binding assay, A2a; settings: displacement of 100 nM CA200645, CHO cell membranes
T1 construct: expressed in transfected cells; host or cells: CHO cell membranes
Procedure: (§1) All FRET binding experiments were conducted at room temperature in white 384-well plates, in assay binding buffer containing 1× LabMed (Cisbio, France), 100 μg/mL saponin, 1% DMSO and 0.02% pluronic acid. Binding of the fluorescently labelled Adenosine receptor antagonist XAC (CA200645, FRET acceptor) to terbium-labelled A1, A2a, A2b and A3 adenosine receptors (FRET donors) was detected by time-resolved FRET due to the close proximity of the donor and acceptor in a binding event. To investigate the ability of unlabelled test compounds to bind to Adenosine A1, A2a, A2b and A3 receptors, dose response curves were constructed that determined the ability of a range of concentrations to inhibit the binding of 30 nM CA200645 to the A2b receptor and 100 nM CA200645 to the A1, A2a, and A3 receptor.
(§2) Serial dilution (1:3 dilutions) of test compounds in neat DMSO and transfer of a 400 nL sample of test compound into the assay plate was carried out using the Mosquito (TTP Labtech, UK). The compound samples were incubated for 2 hours at room temperature with a fixed concentration of CA200645 defined for each receptor (see above) and CHO cell membranes containing the human Adenosine A1 (0.5 μg/well), A2a (0.3 μg/well), A2b (1 μg/well) or A3 (1 μg/well) receptor in 40 μL of assay buffer. Total and non-specific binding of CA200645 was determined in the absence and presence of 10 μM XAC, respectively.
(§3) Following 2 hours incubation, the level of CA200645 binding was detected on a Pherastar FSX (BMG Labtech, Germany) using standard TR-FRET settings. The terbium donor was excited with three laser flashes at a wavelength of 337 nm, and donor and acceptor emission was detected at 620 nm and 665 nm wavelengths, respectively. FRET ratios were obtained by multiplying the acceptor/donor ratio value by 10,000. Specific binding was determined by subtracting the non-specific binding FRET ratio from the total binding FRET ratio. Compound IC50 curves were analysed using GraphPad Prism 7.0 (GraphPad, USA) and Ki affinity values were determined from the obtained […] values using the method of Cheng and Prusoff.

Adenosine A2b receptor = target: T2, Adenosine A2b receptor (Homo sapiens, UniProt P29275); assay: Adenosine receptor TR-FRET binding assay, A2b; settings: Table 9, further testing; displacement of 30 nM CA200645, CHO cell membranes
T2 construct: expressed in transfected cells; host or cells: CHO cell membranes
T2 sequence (P29275 1-332): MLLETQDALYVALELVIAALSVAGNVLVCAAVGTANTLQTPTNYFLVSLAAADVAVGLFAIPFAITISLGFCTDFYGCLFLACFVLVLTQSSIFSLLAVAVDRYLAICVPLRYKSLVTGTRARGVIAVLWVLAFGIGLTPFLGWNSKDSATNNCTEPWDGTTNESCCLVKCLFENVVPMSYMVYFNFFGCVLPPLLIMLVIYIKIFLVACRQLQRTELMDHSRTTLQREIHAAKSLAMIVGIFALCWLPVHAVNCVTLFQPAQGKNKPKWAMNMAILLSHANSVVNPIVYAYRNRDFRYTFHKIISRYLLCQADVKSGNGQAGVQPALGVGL
Procedure: as §1, §2, §3

Adenosine A1 receptor = target: T3, Adenosine A1 receptor (Homo sapiens, UniProt P30542); assay: Adenosine receptor TR-FRET binding assay, A1; settings: Table 9, further testing; displacement of 100 nM CA200645, CHO cell membranes
T3 construct: expressed in transfected cells; host or cells: CHO cell membranes
T3 sequence (P30542 1-326): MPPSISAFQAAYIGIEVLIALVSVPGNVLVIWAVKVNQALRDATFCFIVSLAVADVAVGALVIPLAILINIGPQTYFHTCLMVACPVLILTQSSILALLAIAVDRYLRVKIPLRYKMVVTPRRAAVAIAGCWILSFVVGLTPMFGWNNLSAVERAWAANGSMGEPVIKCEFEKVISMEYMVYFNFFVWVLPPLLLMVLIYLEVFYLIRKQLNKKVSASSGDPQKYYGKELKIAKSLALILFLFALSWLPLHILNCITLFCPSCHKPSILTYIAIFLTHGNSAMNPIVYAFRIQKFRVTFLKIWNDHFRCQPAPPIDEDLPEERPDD
Procedure: as §1, §2, §3

Adenosine A3 receptor = target: T4, Adenosine A3 receptor (Homo sapiens, UniProt P0DMS8); assay: Adenosine receptor TR-FRET binding assay, A3
T4 construct: expressed in transfected cells; host or cells: CHO cell membranes
T4 sequence (P0DMS8 1-318): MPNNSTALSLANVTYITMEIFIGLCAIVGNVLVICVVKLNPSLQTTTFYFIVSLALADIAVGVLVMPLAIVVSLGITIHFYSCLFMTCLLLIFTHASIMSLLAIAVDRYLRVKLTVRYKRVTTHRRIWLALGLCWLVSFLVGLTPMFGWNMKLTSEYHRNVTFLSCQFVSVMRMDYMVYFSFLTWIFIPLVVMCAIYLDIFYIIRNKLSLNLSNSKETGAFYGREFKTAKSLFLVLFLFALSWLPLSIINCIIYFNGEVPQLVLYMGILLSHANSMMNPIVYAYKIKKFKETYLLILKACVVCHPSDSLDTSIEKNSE
Procedure: as §1, §2, §3

[1] = Table 9, further testing, displacement of 100 nM CA200645, CHO cell membranes, read-out: A3 Ki

T1 sequence (P29274 whole entry): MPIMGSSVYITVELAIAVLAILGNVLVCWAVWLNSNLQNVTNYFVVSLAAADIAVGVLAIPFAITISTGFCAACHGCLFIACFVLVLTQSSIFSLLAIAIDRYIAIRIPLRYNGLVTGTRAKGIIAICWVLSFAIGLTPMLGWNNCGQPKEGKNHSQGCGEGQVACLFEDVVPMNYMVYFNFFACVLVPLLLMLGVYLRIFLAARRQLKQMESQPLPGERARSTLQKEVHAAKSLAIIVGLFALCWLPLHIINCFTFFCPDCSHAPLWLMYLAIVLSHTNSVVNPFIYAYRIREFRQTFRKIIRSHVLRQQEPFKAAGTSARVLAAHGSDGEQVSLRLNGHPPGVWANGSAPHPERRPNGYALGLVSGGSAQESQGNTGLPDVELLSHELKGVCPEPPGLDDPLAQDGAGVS

Row | Ki (Adenosine A2a receptor; Table 8, Cheng and Prusoff) [nM] | Ki (Adenosine A2a receptor; Table 9, further testing) [nM] | Ki (Adenosine A2b receptor) [nM] | Ki (Adenosine A1 receptor) [nM] | Ki (Adenosine A3 receptor; [1]) [nM] | Compound | Ki (Adenosine A3 receptor) [nM]
1 | – | 424 | 5540 | 995 | 818 | Cc1ccc(-c2ncc(C(=O)NCc3ncccc3C)c(N)n2)o1 [Example 3.1, 4-Amino-2-(5-methyl-2-furyl)-N-[(3-methyl-2-pyridyl)methyl]pyrimidine-5-carboxamide] | –
2 | – | 23 | 420 | 7960 | 3050 | Nc1nc(-c2ccco2)ncc1C(=O)NCc1ncccc1F [Example 5.48, 4-Amino-N-[(3-fluoro-2-pyridyl)methyl]-2-(2-furyl)pyrimidine-5-carboxamide] | –
3 | – | 11 | 644 | 6020 | 4630 | Nc1cccnc1CNC(=O)c1cnc(-c2ccco2)nc1N [Example 5.53, 4-Amino-N-[(3-amino-2-pyridyl)methyl]-2-(2-furyl)pyrimidine-5-carboxamide] | –
4 | 51 | 51 | 1100 | 137 | 24 | Cc1cccnc1CNC(=O)c1nnc(-c2ccc(F)cc2)nc1N [Example 8, 5-Amino-3-(4-fluorophenyl)-N-[(3-methyl-2-pyridyl)methyl]-1,2,4-triazine-6-carboxamide] | –
5 | 796 | 796 | 8490 | 4440 | 1800 | Cc1ccc(CNC(=O)c2cnc(-c3cccc(F)c3)nc2N)cc1 [Example 10, 4-Amino-2-(3-fluorophenyl)-N-(p-tolylmethyl)pyrimidine-5-carboxamide] | –
6 | 194 | 194 | 1480 | 280 | 582 | Nc1nc(-c2cccc(F)c2)ncc1C(=O)NCc1cccc(Cl)c1 [Example 10.2, 4-Amino-N-[(3-chlorophenyl)methyl]-2-(3-fluorophenyl)pyrimidine-5-carboxamide] | –
7 | 180 | 180 | 1360 | 598 | 504 | Nc1nc(-c2cccc(F)c2)ncc1C(=O)NCc1cccc(F)c1 [Example 10.3, 4-Amino-2-(3-fluorophenyl)-N-[(3-fluorophenyl)methyl]pyrimidine-5-carboxamide] | –
8 | 959 | 959 | 6060 | 3800 | 1820 | Nc1nc(-c2cccc(F)c2)ncc1C(=O)NCc1ccc(F)cc1 [Example 10.4, 4-Amino-2-(3-fluorophenyl)-N-[(4-fluorophenyl)methyl]pyrimidine-5-carboxamide] | –
9 | 137 | 137 | 2970 | 658 | 300 | Nc1nc(-c2cccc(F)c2)ncc1C(=O)NCc1ccccc1Cl [Example 10.5, 4-Amino-N-[(2-chlorophenyl)methyl]-2-(3-fluorophenyl)pyrimidine-5-carboxamide] | –

The remaining lines, values behind:

Row | Compound | Ki (Adenosine A2a receptor; Table 8, Cheng and Prusoff) [nM] | Ki (Adenosine A2a receptor; Table 9, further testing) [nM] | Ki (Adenosine A2b receptor) [nM] | Ki (Adenosine A1 receptor) [nM] | Ki (Adenosine A3 receptor; [1]) [nM] | Ki (Adenosine A3 receptor) [nM]
10 | CCOC(=O)c1nnc(-c2ccco2)nc1N [Example 1, Ethyl 5-amino-3-(2-furyl)-1,2,4-triazine-6-carboxylate] | 60 | 61 | 382 | 314 | 101 | –
11 | Nc1nc(-c2ccco2)ncc1C(=O)NCc1cccc(F)c1 [Example 5.13, 4-Amino-N-[(3-fluorophenyl)methyl]-2-(2-furyl)pyrimidine-5-carboxamide] | 20 | 20 | 3970 | 3550 | 2680 | –
12 | Nc1nc(-c2ccco2)ncc1C(=O)NCc1ccccc1Cl [Example 5.15, 4-Amino-N-[(2-chlorophenyl)methyl]-2-(2-furyl)pyrimidine-5-carboxamide] | 5.1 | 5.1 | 1210 | 3990 | 2170 | –
13 | CCn1ccnc1CNC(=O)c1cnc(-c2ccco2)nc1N [Example 5.26, 4-Amino-N-[(1-ethylimidazol-2-yl)methyl]-2-(2-furyl)pyrimidine-5-carboxamide] | 24 | 24 | 4690 | 4860 | 6030 | –
14 | Nc1nc(-c2ccco2)ncc1C(=O)NCc1cccc(C(F)(F)F)c1 [Example 5.29, 4-Amino-2-(2-furyl)-N-[[3-(trifluoromethyl)phenyl]methyl]pyrimidine-5-carboxamide] | 52 | 52 | 5470 | 1700 | 2460 | –
15 | Nc1nc(-c2ccco2)ncc1C(=O)NCc1ncccc1C(F)(F)F [Example 5.30, 4-Amino-2-(2-furyl)-N-[[3-(trifluoromethyl)-2-pyridyl]methyl]pyrimidine-5-carboxamide] | – | 2.7 | 2350 | 4750 | – | 2300
16 | Cc1cccc(CNC(=O)c2cnc(-c3ccco3)nc2N)n1 [Example 5.32, 4-Amino-2-(2-furyl)-N-[(6-methyl-2-pyridyl)methyl]pyrimidine-5-carboxamide] | – | 3.3 | 437 | 1890 | 1410 | –
17 | Cc1cccc(CNC(=O)c2cnc(-c3ccco3)nc2N)c1 [Example 5.34, 4-Amino-2-(2-furyl)-N-(m-tolylmethyl) pyrimidine-5-carboxamide] | – | 10 | 1410 | 1040 | 1910 | –
18 | Nc1nc(-c2ccco2)ncc1C(=O)NCc1ccccc1C(F)F [Example 5.35, 4-Amino-N-[[2-(difluoromethyl)phenyl]methyl]-2-(2-furyl)pyrimidine-5-carboxamide] | – | 12 | 1330 | 2620 | 2800 | –
19 | Cc1cc(C)cc(CNC(=O)c2cnc(-c3ccco3)nc2N)c1 [Example 5.39, 4-Amino-N-[(3,5-dimethylphenyl)methyl]-2-(2-furyl)pyrimidine-5-carboxamide] | – | 21 | 2130 | 521 | 753 | –
20 | COc1cc(CNC(=O)c2cnc(-c3ccco3)nc2N)cc(OC)c1 [Example 5.43, 4-Amino-N-[(3,5-dimethoxyphenyl)methyl]-2-(2-furyl)pyrimidine-5-carboxamide] | – | 58 | 5140 | 4780 | 5920 | –
21 | Nc1nc(-c2ccco2)ncc1C(=O)NCc1cccc2c1OCO2 [Example 5.52, 4-Amino-N-(1,3-benzodioxol-4-ylmethyl)-2-(2-furyl)pyrimidine-5-carboxamide] | – | 11 | 5130 | 4790 | 3090 | –
22 | Nc1nc(-c2cccc(F)c2)ncc1C(=O)NCc1cc(F)cc(F)c1 [Example 10.7, 4-Amino-N-[(3,5-difluorophenyl)methyl]-2-(3-fluorophenyl)pyrimidine-5-carboxamide] | 104 | 104 | 2420 | 238 | 778 | –
